Measured values: patent US11975072B2, “Pyropheophorbide conjugate and use thereof in the treatment of cancer and as a fluorescent marker” (INSERM (INSTITUT NATIONAL DE LA SANTÉ ET DE LA RECHERCHE …, priority 2017, dated 2024)

Tests used:
[1] = in ethanol; cited from earlier work
[2] = Photophysical properties (absorption, fluorescence, singlet oxygen production, lifetimes) in ethanol; type: physicochemical; settings: for ϕF fluorescence quantum yield: ±0.02, reference tetraphenylporphyrin in toluene; for ϕΔ quantum yield (singlet oxygen production): ±0.05, reference Rose Bengal in ethanol; for τF fluorescence lifetime: ±0.1 ns; for τΔ singlet oxygen lifetime: ±1 μs
Description: The absorption spectra were measured with a UV-3600 double beam UV-visible spectrophotometer (Shimadzu, Marne La Vallée, France). The fluorescence spectra were measured with a Fluorolog FL3-222 spectrofluorimeter (Horiba Jobin Yvon, Longjumeau, France) equipped with a 450 W xenon arc lamp, with a thermostated (25° C.) cuvette holder compartment, with an R928 UV-visible photomultiplier (Hamamatsu, Japan) and with a liquid nitrogen-cooled InGaAs infrared detector (DSS-16A020L Electro-Optical System Inc, Phoenixville, PA, USA). The excitation beam is diffracted by a SPEX double-grating monochromator (1200 lines/mm blazed at 330 nm). The fluorescence was measured by the UV-visible detector via the SPEX double-grating emission monochromator (1200 lines/mm blazed at 500 nm). The production of singlet oxygen was measured by the infrared detector via the SPEX double-grating emission monochromator (600 lines/mm blazed at 1 μm) and a high-pass filter at 780 nm. All the spectra were measured using 4-face quartz cuvettes. All the emission spectra (singlet-oxygen fluorescence and luminescence) were related back to the same absorbance (less than 0.2) with the lamp and photomultiplier corrections.
The fluorescence quantum yield was determined by equation (1):
[formula] where Φf and Φfo, If and Ifo, OD and ODo, n and no, are the quantum yields, the fluorescence intensities, the optical densities, and the refractive indices of the sample and of the reference respectively.
The reference used for the calculation of the fluorescence quantum yield is tetraphenylporphyrin in toluene with a φfo of 0.11.
The quantum yield for singlet oxygen production is determined by equation (2):
[formula] where ΦΔ and ΦΔo, I and Io, OD and ODo are the quantum yields for singlet oxygen production, the singlet oxygen production intensities and the optical densities of the sample and of the reference respectively.
The reference used for the calculation of the quantum yield for singlet oxygen production is Rose Bengal in ethanol with a φΔo of 0.68.
The fluorescence lifetime experiments were carried out using, for the excitation, a pulsed laser diode emitting at 407 nm (LDH-P-C-400M, FWHM<70 ps, 1 MHz) coupled to a PDL 800-D pulse generator (PicoQuant GmbH, Berlin, Germany) and, for the detection, an SPCM-AQR-15 avalanche photodiode (EG & G, Vaudreuil, Canada) coupled to a high-pass filter at 650 nm.
The acquisition was carried out using a PicoHarp 300 module linked to a PHR-800 4-channel router (PicoQuant GmbH, Berlin, Germany). The fluorescence declines were recorded using the single photon counting method (Time Correlated Single Photon Counting TCSPC). The data were collected until 1000 accumulated counts in a channel were obtained, then analyzed using the TCSPC Fluofit software (PicoQuant GmbH, Berlin, Germany) based on an iterative reconvolution using a Levensberg-Marquandt algorithm which allows multiexponential declines to be obtained.
The singlet oxygen lifetime measurements were carried out with a Tempro-01 spectrophotometer (Horiba Jobin Yvon, Longjumeau, France) composed of a SpectraLED-415 pulsed excitation diode emitting at 415 nm, of a cuvette holder compartment, of an emission monochromator of Seya-Namioka type (600-2000 nm) and of an H10330-45 thermoelectrically regulated near infrared photomultiplier tube (Hamamatsu, Japan). The assembly is controlled by the FluoroHub-B counting module and the DataStation and DAS6 software (Horiba Jobin Yvon).
The emission spectra and the phosphorescence lifetime measurements were carried out with a Fluorolog FL3-22 spectrofluorimeter (Horiba Jobin Yvon, Longjumeau, France) equipped with a 450 W continuous xenon lamp, with a xenon flash lamp, with a thermostated (25° C.) cuvette holder compartment and with an R928 UV-visible photomultiplier (Hamamatsu, Japan). The assembly is controlled by the FluoroHub-B counting module. […]

Row | Compound | φΔo quantum yield for singlet oxygen production of the reference [1] | εQI (molar extinction coefficient, QI band) [2] | εsoret band (molar extinction coefficient) [2] | λQI (QI band absorption peak) [2] [nm] | ϕF fluorescence quantum yield [2] | ϕΔ quantum yield (singlet oxygen production) [2] | τF fluorescence lifetime [2] [ns] | τΔ singlet oxygen lifetime [2] [μs]
1 | O=C([O-])c1c(Cl)c(Cl)c(Cl)c(Cl)c1-c1c2cc(I)c(=O)c(I)c-2oc2c(I)c([O-])c(I)cc12.[Na+].[Na+] [Rose Bengal] | 0.68 | – | – | – | – | – | – | –
2 | pheophorbide-a [Pheo(a)-COOH] | – | 32 537 L · mol^−1 · cm^−1 | 69 663 L · mol^−1 · cm^−1 | 667 | 0.44 | 0.52 | 5.7 | 12
3 | pyropheophorbide-a [Pyro(a)-COOH] | – | 33 265 L · mol^−1 · cm^−1 | 76 326 L · mol^−1 · cm^−1 | 668 | 0.34 | 0.52 | 6.7 | 13
